Measured values: patent US20060229358A1, “Pharmaceutical composition containing flavonoids” (Taipei Medical University, priority 2005, published 2006)

These compounds were tested on PDE1 (assay: Inhibition of cyclic nucleotide PDE activity (Assay I), PDE1). Settings: mean ± S.E.M. (n); read-out: IC50 on phosphodiesterase isozyme 1.
Type: biochemical, guinea pig
Experimental: Under a protocol approved by the Animal Care and Use Committee of Taipei Medical University, five male guinea pigs (Hartley), weighing 500-600 g, were sacrificed. The lungs (15 g) or hearts (4 g) taken therefrom were chopped into small pieces and homogenized with a glass/teflon homogenizer (Glas-Col, Terre Haute, Ind., USA) in 10 volumes of cold medium (pH 6.5) containing 20 mM Bis-Tris, 2 mM benzamidine, 2 mM EDTA, 50 mM sodium chloride, 0.1 mM phenylmethanesulfonyl fluoride (PMSF), and 1 mM dithiothreitol. At 4° C., the homogenate was centrifuged at 170 g for 15 min, and the supernatant thereof was then re-centrifuged at 40,000 g for 30 min. The final supernatant fraction was filtered through the 0.22 μm filter and applied to a Q-sepharose fast flow column (2.2×28 cm), which is pre-washed and pre-equilibrated in homogenization buffer. The column was washed with two bed volumes of homogenate buffer to remove unbound material, where the resin beads therein will bind with proteins, such as PDE proteins. Proteins bound to the Q-sepharose beads were eluted with various concentrations (0.23, 0.34, 0.44, 0.69, and 1.00 M) of NaCl dissolved in homogenate buffer (for each concentration, 40-50 mL elution buffer were applied) at a flow rate of 30 ml/h. Fractions (3 ml each) were collected, and ethylene glycol (EG) was added thereto until a final concentration of 30% (v/v). And then the samples were frozen at −70° C. Under these conditions, the enzyme activity was stable for at least 3 months.
In order to eliminate possible contamination of PDE5 by PDE1, the above-collected fractions with enzyme activity was further purified on a calmodulin-agarose column. The column (1.6 cm×4 cm) was pre-equilibrated by a buffer A, which contains 20 mM Bis-tris, 1 mM dithiothreitol, 2 mM benzamidine, 50 mM NaCl, 3 mMMgCl2, 0.1 mM CaCl2, and 0.1 mM PMSF, pH 6.5. The sample (the mixture of PDE5 and PDE1), being purified by the above-mentioned column, with the CaCl2 concentration thereof adjusted to at least 2 mM previously, was loaded and allowed to be absorbed on the gel for 30 min. Then, the PDE isozymes were eluted by stepwise elution using 20 ml of buffer A with 1 M NaCl followed by 20 ml of buffer A with 1 M NaCl and with 1 mM EGTA. PDE5 was collected first followed by PDE1.
The activities of PDE1-5 in the homogenate were measured with a two-step procedure according to the method of Thompson and Appleman, using cAMP with [^3H]-cAMP or cGMP with [^3 H]-cGMP as substrates. The PDE enzyme prepared (25 μl) with 10 μl inhibitor or the solvents therefor was incubated for 30 min at 37° C. in a total assay buffer, where the final volume of the assay is amounted to 100 μl. In accordance with the features of the PDE isozymes, the assay buffer contains 50 mM Tris/HCl (pH 7.4), 3 mM MgCl2, 1 mM dithiothreitol, and 0.05% BSA, and optionally contains 1 uM cAMP with 0.2 μCi [^3H]-cAMP as a substrate alone or in the presence of 0.1 unit calmodulin with 10 μM CaCl2, or 5 μM cGMP, and 1 μM cGMP with 0.2 μCi [^3H]-cGMP as another substrate alone or in the presence of 0.1 unit calmodulin with 10 μM CaCl2. In assay of enzyme inhibition, the assay mixture contained with the inhibitors at various concentrations of flavonoids in the Table 1 or the selective PDE1-5 inhibitors as reference drugs. For example, the selective PDE1-5 inhibitors are vinpocetin [30], EHNA [31], milrinone, Ro 20-1724 [33], and zaprinast, respectively.
The PDE enzyme and the inhibitors (or their solvent) therefor were mixed and incubated on ice for 30 min previously, and then mixed with the assay buffer. The assay was initiated by transferring the mixture to a water bath at 37° C. Following the other 30 min incubation, the reaction was stopped by transferring the reaction vessel to a bath of boiling water for 3 min. After cooling on ice, 20 μl of the 1 mg/ml of Crotalus atrox venom was added to the reaction mixture, and the mixture was incubated at 37° C. for 10 min. […]

SMILES	IC50
O=C1CC(c2ccc(O)c(O)c2)Oc2cc(O)cc(O)c21 (stereo not drawn) [Eriodictyol]	> 100 µM
O=c1c(O)c(-c2ccc(O)c(O)c2)oc2cc(O)cc(O)c12 [Quercetin]	27.8 ± 5.7 µM
O=c1cc(-c2ccc(O)c(O)c2)oc2cc(O[C@@H]3O[C@H](CO)[C@@H](O)[C@H](O)[C@H]3O)cc(O)c12 [Luteolin-7-glucoside]	> 100 µM
COc1ccc(-c2coc3cc(O)cc(O)c3c2=O)cc1 [Biochanin A]	29.1 ± 0.3 µM
O=c1c(-c2ccc(O)cc2)coc2cc(O)cc(O)c12 [Genistein]	16.8 ± 2.3 µM
O=c1cc(-c2ccc(O)c(O)c2)oc2cc(O)cc(O)c12 [Luteolin]	21.5 ± 2.9 µM
O=c1cc(-c2ccccc2)oc2cc(O)cc(O)c12 [Chrysin]	> 100 µM
COc1ccc(C2CC(=O)c3c(O)cc(O)cc3O2)cc1O (stereo not drawn) [Hesperetin]	> 100 µM
O=c1c(O)c(-c2cc(O)c(O)c(O)c2)oc2cc(O)cc(O)c12 [Myricetin]	24.9 ± 3.6 µM
O=c1c(-c2ccc(O)cc2)coc2cc(O)ccc12 [Daidzein]	> 100 µM
COc1cc(O)c2c(=O)c(-c3ccc(O)cc3)coc2c1 [Prunetin]	> 100 µM
O=c1cc(-c2ccc(O)cc2)oc2cc(O)cc(O)c12 [Apigenin]	25.4 ± 3.7 µM
